Laboratory results as given in patent US20140303092A1 (CHIMERIX, INC., priority 2011, published 2014).

Assay: Study HDP-CDV-201: safety and tolerability (adverse events, laboratory abnormalities, discontinuations)
Format: in vivo, human (adult allogeneic HSCT recipients)
Procedure: Clinical Studies of HDP-CDV were performed and described in detail in the following Examples. For example, HDP-CDV-201 is a placebo-controlled, dose-escalating trial in HSCT CMV (R+) recipients, evaluating the ability of HDP-CDV to prevent or control CMV infection was carried out. Five cohorts were established in which participants or subjects received either placebo or the HDP-CDV orally, in doses ranging from 40 mg weekly (QW) to 200 mg twice weekly (BIW). Subjects who were post-HSCT were enrolled at the time of engraftment and randomized to HDP-CDV or placebo (3 to 1 ratio) and received blinded therapy until approximately 100 day post-transplantation. HDP-CDV doses were 40 mg QW, 100 mg QW, 200 mg QW, 200 mg BIW and 100 mg BIW. Escalation to the next dose was decided by the data monitoring committee after review of the safety data from the previous Cohort. Subjects who developed CMV disease or CMV infection requiring pre-emptive therapy with local standard of care were discontinued from blinded therapy and followed for 4 weeks. Subjects who completed treatment with blinded therapy were followed for 8 weeks post-therapy.
Data from Study HDP-CDV-201 also provided characterization of the safety and tolerability profile of HDP-CDV when administered for the prevention or control of CMV infection in high risk (R^+) post-HSCT adult subjects.
The Safety population (SAFETY) included all randomized subjects who took at least one dose of study treatment. This population was used to summarize safety outcomes based on the treatment actually received, in cases where a subject was treated contrary to the randomization schedule.
The safety and tolerability profile of HDP-CDV, including subject demographics and Baseline characteristics; the AE profile; and laboratory abnormalities of interest were analyzed in the cohorts followed in this investigation.
Subjects completing the treatment period received a full course of study medication; those completing the entire study attended visits through 8 weeks of follow up. Subjects who discontinued treatment may have done so for protocol specified reasons (e.g. development of clinically significant CMV infection requiring preemptive treatment with excluded anti-CMV medications) or for other reasons (e.g., withdrawal, adverse events, loss to follow-up). The disposition of subjects in Study HDP-CDV-201 during the double-blind, placebo-controlled treatment period (through Week 11) is listed by dosing Cohort in TABLE 23.
Adverse events were examined by severity to ensure that all safety signals were identified in this study population. Because of the frequency of events in HSCT recipients, particular attention was given to evaluation of Grade 3 […], 4 (severe), and 5 (fatal) adverse events.
Only those preferred terms for which at least one Grade 3 or higher event was experienced in any treatment group are listed. Cytomegalovirus-related AEs are excluded from this analysis.
HDP-CDV is a lipid conjugate of CDV. Because CDV is known to have adverse effects on renal function and bone marrow, decreased GFR and persistent neutropenia were identified as AEs of special interest. Key renal and hematological (TABLE 30) laboratory parameters were measured and listed below by Study HDP-CDV-201 treatment groups. TABLE 30 includes abnormal levels of serum creatinine, neutrophils, platelets, WBCs, and hemoglobin and includes data at Screening and during the treatment period.
A common metric for unit based dosing of medications is by weight (mg/kg). When the distribution of weights was examined for all subjects participating in the study, the median was 78 kg and the lower 25th percentile weight was approximately 65 kg, which translates to a cut-off of ˜3 mg/kg for a 200 mg total weekly dose. Based upon this approach, a cut-off of 3 mg/kg was used to assess the frequency of diarrhea and associated GI AEs reported for the subjects in Cohorts 3 or 4a (TABLE 40).

CCCCCCCCCCCCCCCCOCCCOP(=O)(O)COC(CO)Cn1ccc(N)nc1=O (stereo not drawn) [HDP-CDV]
TEAE Staphylococcal Bacteremia, Grade 4 (200 mg BIW): 0
TEAE Staphylococcal Bacteremia, Grade 5 (200 mg BIW): 0
TEAE Thrombocytopenia, Frequency (200 mg BIW): 5 (16.7%)
TEAE Thrombocytopenia, Grade 2 (200 mg BIW): 2 (6.7%)
TEAE Thrombocytopenia, Grade 3 (200 mg BIW): 0
TEAE Thrombocytopenia, Grade 4 (200 mg BIW): 3 (10.0%)
TEAE Thrombocytopenia, Grade 5 (200 mg BIW): 0
TEAE Vomiting, Frequency (200 mg BIW): 8 (26.7%)
TEAE Vomiting, Grade 2 (200 mg BIW): 4 (13.3%)
TEAE Vomiting, Grade 3 (200 mg BIW): 0
TEAE Vomiting, Grade 4 (200 mg BIW): 0
TEAE Vomiting, Grade 5 (200 mg BIW): 0
subjects requiring treatment with steroids during the study (200 mg BIW): 83%
proportion of subjects with Grade 3 or higher ALT (>5×ULN) (200 mg BIW (8 of 30)): 27.6%
dose limiting toxicity (200 mg BIW not tolerable): Diarrhea
Subjects Reporting Diarrhea as an AE (200 mg BIW, n = 30): 21 (70.0%)
Discontinuation: Death (200 mg BIW, active treatment period): 3 (10%) Subject n (%)
Discontinuation: Adverse event (200 mg BIW, active treatment period through Week 11): 13 (43.3%) Subject n (%)
TEAE ALT increased, Frequency (200 mg QW): 2 (5.1%)
TEAE ALT increased, Grade 2 (200 mg QW): 1 (2.6%)
TEAE ALT increased, Grade 3 (200 mg QW): 1 (2.6%)
TEAE ALT increased, Grade 4 (200 mg QW): 0
TEAE ALT increased, Grade 5 (200 mg QW): 0
TEAE AML, Recurrent, Frequency (200 mg QW): 0
TEAE AML, Recurrent, Grade 2 (200 mg QW): 0
TEAE AML, Recurrent, Grade 3 (200 mg QW): 0
TEAE AML, Recurrent, Grade 4 (200 mg QW): 0
TEAE AML, Recurrent, Grade 5 (200 mg QW): 0
TEAE AST increased, Frequency (200 mg QW): 1 (2.6%)
TEAE AST increased, Grade 2 (200 mg QW): 1 (2.6%)
TEAE AST increased, Grade 3 (200 mg QW): 0
TEAE AST increased, Grade 4 (200 mg QW): 0
TEAE AST increased, Grade 5 (200 mg QW): 0
TEAE Abdominal pain, Frequency (200 mg QW): 5 (12.8%)
TEAE Abdominal pain, Grade 2 (200 mg QW): 1 (2.6%)
TEAE Abdominal pain, Grade 3 (200 mg QW): 1 (2.6%)
TEAE Abdominal pain, Grade 4 (200 mg QW): 0
TEAE Abdominal pain, Grade 5 (200 mg QW): 0
TEAE Acute GVHD, Frequency (200 mg QW): 13 (33.3%)
TEAE Acute GVHD, Grade 2 (200 mg QW): 5 (12.8%)
TEAE Acute GVHD, Grade 3 (200 mg QW): 4 (10.3%)
TEAE Acute GVHD, Grade 4 (200 mg QW): 2 (5.1%)
TEAE Acute GVHD, Grade 5 (200 mg QW): 1(2.6%)
TEAE Arthralgias, Frequency (200 mg QW): 1 (2.6%)
TEAE Arthralgias, Grade 2 (200 mg QW): 0
TEAE Arthralgias, Grade 3 (200 mg QW): 0
TEAE Arthralgias, Grade 4 (200 mg QW): 0
TEAE Arthralgias, Grade 5 (200 mg QW): 0
TEAE Back Pain, Frequency (200 mg QW): 2 (5.1%)
TEAE Back Pain, Grade 2 (200 mg QW): 2 (5.1%)
TEAE Back Pain, Grade 3 (200 mg QW): 0
TEAE Back Pain, Grade 4 (200 mg QW): 0
TEAE Back Pain, Grade 5 (200 mg QW): 0
TEAE Decreased appetite, Frequency (200 mg QW): 3 (7.7%)
TEAE Decreased appetite, Grade 2 (200 mg QW): 1 (2.6%)
TEAE Decreased appetite, Grade 3 (200 mg QW): 0
TEAE Decreased appetite, Grade 4 (200 mg QW): 0
TEAE Decreased appetite, Grade 5 (200 mg QW): 0
TEAE Diarrhea, Frequency (200 mg QW): 13 (33.3%)
TEAE Diarrhea, Grade 2 (200 mg QW): 5 (12.8%)
TEAE Diarrhea, Grade 3 (200 mg QW): 2 (5.1%)
TEAE Diarrhea, Grade 4 (200 mg QW): 0
TEAE Diarrhea, Grade 5 (200 mg QW): 0
TEAE Fatigue, Frequency (200 mg QW): 5 (12.8%)
TEAE Fatigue, Grade 2 (200 mg QW): 0
TEAE Fatigue, Grade 3 (200 mg QW): 1 (2.6%)
TEAE Fatigue, Grade 4 (200 mg QW): 0
TEAE Fatigue, Grade 5 (200 mg QW): 0
TEAE GGT Increased, Frequency (200 mg QW): 0
TEAE GGT Increased, Grade 2 (200 mg QW): 0
TEAE GGT Increased, Grade 3 (200 mg QW): 0
TEAE GGT Increased, Grade 4 (200 mg QW): 0
TEAE GGT Increased, Grade 5 (200 mg QW): 0
TEAE Generalized oedema, Frequency (200 mg QW): 0
TEAE Generalized oedema, Grade 2 (200 mg QW): 0
TEAE Generalized oedema, Grade 3 (200 mg QW): 0
TEAE Generalized oedema, Grade 4 (200 mg QW): 0
TEAE Generalized oedema, Grade 5 (200 mg QW): 0
TEAE Hyperbilirubinaemia, Frequency (200 mg QW): 3 (7.7%)
TEAE Hyperbilirubinaemia, Grade 2 (200 mg QW): 1 (2.6%)
TEAE Hyperbilirubinaemia, Grade 3 (200 mg QW): 0
TEAE Hyperbilirubinaemia, Grade 4 (200 mg QW): 1 (2.6%)
TEAE Hyperbilirubinaemia, Grade 5 (200 mg QW): 0
TEAE Hyperglycaemia, Frequency (200 mg QW): 1 (2.6%)
TEAE Hyperglycaemia, Grade 2 (200 mg QW): 0
TEAE Hyperglycaemia, Grade 3 (200 mg QW): 1 (2.6%)
TEAE Hyperglycaemia, Grade 4 (200 mg QW): 0
TEAE Hyperglycaemia, Grade 5 (200 mg QW): 0
TEAE Hyperkalemia, Frequency (200 mg QW): 1 (2.6%)
TEAE Hyperkalemia, Grade 2 (200 mg QW): 0
TEAE Hyperkalemia, Grade 3 (200 mg QW): 0
TEAE Hyperkalemia, Grade 4 (200 mg QW): 0
TEAE Hyperkalemia, Grade 5 (200 mg QW): 0
TEAE Hypocalcaemia, Frequency (200 mg QW): 0
TEAE Hypocalcaemia, Grade 2 (200 mg QW): 0
TEAE Hypocalcaemia, Grade 3 (200 mg QW): 0
TEAE Hypocalcaemia, Grade 4 (200 mg QW): 0
TEAE Hypocalcaemia, Grade 5 (200 mg QW): 0
TEAE Hypokalaemia, Frequency (200 mg QW): 5 (12.8%)
TEAE Hypokalaemia, Grade 2 (200 mg QW): 2 (5.1%)
TEAE Hypokalaemia, Grade 3 (200 mg QW): 0
TEAE Hypokalaemia, Grade 4 (200 mg QW): 0
TEAE Hypokalaemia, Grade 5 (200 mg QW): 0
TEAE Hyponatraemia, Frequency (200 mg QW): 7 (17.9%)
TEAE Hyponatraemia, Grade 2 (200 mg QW): 2 (5.1%)
TEAE Hyponatraemia, Grade 3 (200 mg QW): 2 (5.1%)
TEAE Hyponatraemia, Grade 4 (200 mg QW): 0
TEAE Hyponatraemia, Grade 5 (200 mg QW): 0
TEAE LFT Abnormal, Frequency (200 mg QW): 2 (5.1%)
TEAE LFT Abnormal, Grade 2 (200 mg QW): 0
TEAE LFT Abnormal, Grade 3 (200 mg QW): 0
